One data set concerns the target T1, CYP450 1A2 (Homo sapiens, UniProt P05177).
T1 sequence (P05177 1-516): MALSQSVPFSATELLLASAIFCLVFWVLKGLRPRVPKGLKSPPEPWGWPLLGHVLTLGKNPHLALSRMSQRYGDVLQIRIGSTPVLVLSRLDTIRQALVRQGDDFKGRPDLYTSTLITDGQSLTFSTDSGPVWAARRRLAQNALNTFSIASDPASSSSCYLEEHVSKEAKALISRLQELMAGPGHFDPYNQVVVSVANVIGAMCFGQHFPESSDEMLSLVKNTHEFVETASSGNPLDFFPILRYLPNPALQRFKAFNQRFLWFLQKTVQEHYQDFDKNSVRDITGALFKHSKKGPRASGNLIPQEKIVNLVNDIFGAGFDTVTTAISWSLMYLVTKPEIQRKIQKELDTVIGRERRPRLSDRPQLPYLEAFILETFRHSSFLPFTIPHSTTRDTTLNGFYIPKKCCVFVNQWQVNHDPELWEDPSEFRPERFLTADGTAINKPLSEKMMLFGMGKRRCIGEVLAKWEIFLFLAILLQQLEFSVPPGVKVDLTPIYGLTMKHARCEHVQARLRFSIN
Description: CYP450 1A2 inhibition. Type of data set: in vitro ADME.

Data set [1] in a line: Metabolic stability, mouse. Type of data set: in vitro ADME.
Data set [2] deals with male DIO (diet-induced obese) C57BL/6J mice. Description: Oral glucose tolerance test (OGTT) in DIO mice. Type of data set: in vivo, mouse. The protocol: Oral glucose tolerance tests were carried out on male DIO (diet-induced obese) C57BL/6J mice fed a high fat diet (60% kcal from fat) for 26 weeks prior to experimentation. Mice were fasted overnight before use for experiments. A test compound or vehicle (either: 1) 40% PEG 400+10% Cremophore+50% water or 2) 10% dimethyl acetamide+10% ethanol+10% Cremophore+70% water) was given orally 60 min before oral administration of a glucose solution at a dose of 2 g/kg body weight (oral glucose tolerance test; OGTT). Blood glucose levels were measured from tail-bled samples taken at different time points before and after administration of glucose (time course of 2 hours). A time curve of the blood glucose was generated and the change from baseline area-under-the curve (ΔAUC) from 0-120 min was calculated (the time glucose administration being time zero).

Data set [3] can be described thus: Pharmacokinetic study in mice (plasma and liver). Type of data set: in vivo. The conditions noted are these: male, C57BL/6J, mouse, C57/B16J mice, 10 mg/kg oral. The protocol: Pharmacokinetic (PK) screening studies were carried out by methods known to one of ordinary skill in the art. For example, study compounds were administered orally to male C57 Black6j (C57B16J) mice (N=3 per time point) at 10 mg/kg as solutions in a PEG400/Cremphor EL/water (40/10/50) vehicle. The mice were fasted overnight prior to the PK study. Blood samples were taken at 0.5, 1, 2, and 4 hr post dose by cardiac bleeding. Blood samples (˜0.2 mL) were added with K2EDTA and centrifuged at 4° C. (1500-2000×g) to obtain plasma. Liver samples (N=3) were collected at 1 hr post dose. The liver tissues were homogenized with 3 volumes of water to form uniform homogenates. Both plasma and liver samples were stored at −20° C. before they were analyzed by LC/MS/MS. The plasma AUC were calculated using linear and log trapezoidal summations. The liver-to-plasma (L/P) ratio was calculated by dividing the total concentration in liver with plasma concentrations for respective mice. The average of L/P ratios from 3 mice was reported together with the standard deviation.

Another data set can be described thus: Aqueous solubility. Type of data set: physicochemical. The following applies: aqueous medium (not further specified).
Another data set concerns the target CYP450 3A4 (Homo sapiens, UniProt P08684). Description: CYP450 3A4 inhibition. Type of data set: in vitro ADME.
The target of another data set is T2, Mouse Glucokinase (Mus musculus, UniProt P52792).
T2 sequence (P52792 1-465): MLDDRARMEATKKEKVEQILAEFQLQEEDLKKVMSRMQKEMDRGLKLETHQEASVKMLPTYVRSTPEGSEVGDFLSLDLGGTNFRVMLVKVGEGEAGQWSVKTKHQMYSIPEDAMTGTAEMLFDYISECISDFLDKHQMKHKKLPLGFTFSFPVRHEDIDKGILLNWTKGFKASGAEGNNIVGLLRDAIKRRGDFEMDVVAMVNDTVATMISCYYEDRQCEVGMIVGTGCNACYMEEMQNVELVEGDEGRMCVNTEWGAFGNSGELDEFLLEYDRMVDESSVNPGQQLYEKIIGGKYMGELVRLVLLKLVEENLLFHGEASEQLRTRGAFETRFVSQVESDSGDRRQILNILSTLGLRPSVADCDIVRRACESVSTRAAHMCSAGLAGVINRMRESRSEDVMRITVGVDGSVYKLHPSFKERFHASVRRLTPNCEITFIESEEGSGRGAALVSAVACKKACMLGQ
Description: Glucokinase activation, mouse GK. Type of data set: biochemical.

A further data set addresses T3, CYP450 2C8 (Homo sapiens, UniProt P10632).
T3 sequence (P10632 1-490): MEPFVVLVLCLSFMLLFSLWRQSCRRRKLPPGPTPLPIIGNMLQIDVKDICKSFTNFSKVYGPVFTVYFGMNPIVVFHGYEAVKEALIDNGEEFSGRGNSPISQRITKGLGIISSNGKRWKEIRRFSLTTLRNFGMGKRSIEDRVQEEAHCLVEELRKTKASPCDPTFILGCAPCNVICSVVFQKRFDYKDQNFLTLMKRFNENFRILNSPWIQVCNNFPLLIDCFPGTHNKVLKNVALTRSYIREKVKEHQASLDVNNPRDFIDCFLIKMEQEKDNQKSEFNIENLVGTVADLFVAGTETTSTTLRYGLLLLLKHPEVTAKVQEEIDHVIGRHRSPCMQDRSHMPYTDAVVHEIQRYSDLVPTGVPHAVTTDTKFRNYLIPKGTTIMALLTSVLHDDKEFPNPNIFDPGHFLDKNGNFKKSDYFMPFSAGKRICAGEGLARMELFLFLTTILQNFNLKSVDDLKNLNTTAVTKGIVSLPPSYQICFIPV
Description: CYP450 2C8 inhibition. Type of data set: in vitro ADME.

A further data set addresses T4, Human Glucokinase (Homo sapiens, UniProt P35557).
T4 construct: Full-length human hepatic GK (untagged) was expressed; made in house; host or cells: E. coli BL21 STAR (DE3)pLysS
T4 sequence (P35557 1-466 isoform P35557-2): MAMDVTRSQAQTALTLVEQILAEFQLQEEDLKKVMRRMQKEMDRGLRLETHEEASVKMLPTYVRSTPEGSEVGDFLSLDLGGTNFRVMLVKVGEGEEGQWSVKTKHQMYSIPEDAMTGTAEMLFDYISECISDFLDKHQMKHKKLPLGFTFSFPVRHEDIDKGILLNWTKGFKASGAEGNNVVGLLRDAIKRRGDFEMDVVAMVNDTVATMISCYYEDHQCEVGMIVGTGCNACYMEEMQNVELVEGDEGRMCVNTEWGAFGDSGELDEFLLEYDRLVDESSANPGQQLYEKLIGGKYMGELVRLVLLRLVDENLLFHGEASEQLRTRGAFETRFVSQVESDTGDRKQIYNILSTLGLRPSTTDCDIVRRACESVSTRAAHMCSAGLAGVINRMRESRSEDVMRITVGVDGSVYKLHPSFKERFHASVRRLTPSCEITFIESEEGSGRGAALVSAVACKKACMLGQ
Description: Glucokinase tandem enzymatic assay (human GK). Type of data set: biochemical. The protocol:
Enzymatic activity of human glucokinase (GK) was measured by incubating GK, ATP, and glucose for discrete time periods followed by quenching with EDTA (ethylenediamine tetra-acetic acid). Relative amounts of product glucose-6-phosphate (G6P) were measured by then running a detection assay using G6P dehydrogenase and measuring the conversion of ThioNAD (thio-nicotinamide adenine dinucleotide) to ThioNADH (thio-dihydronicotinamide adenine dinucleotide) at a wavelength of 405 nm. This “uncoupled” enzymatic reaction is denoted as the GK “tandem” assay. Activation of GK by the compound can be assessed using this assay. The GK tandem assay protocol described below was followed using a range of activator compound concentrations from 0 to 100 μM at 5 and 12 mM of glucose. Human full-length glucokinase (GK, 15 nM) was incubated with 5 or 12 mM glucose in a 384 well black microtiter plate with a clear bottom. To initiate the GK reaction, magnesium-ATP (3 mM final concentration) was added to GK in buffer (final buffer conditions of 25 mM HEPES buffer, pH 7.1, containing 1 mM dithiothreitol and 5% DMSO). The total reaction volume was 20 μL. The reaction was allowed to proceed for ten minutes and was then quenched with 5 μL EDTA; 45 mM final). The components of the detection reaction, ThioNAD and G6PDH (glucose-6-phosphate dehydrogenase) (final concentrations of 650 μM and 3.33 Units, respectively), were then added together in a volume of 25 μL, (to give a total volume of 50 μL). Absorbance measurements were made at 405 nm on a SPECTRAMAX® Plus 384 absorbance plate reader (Molecular Devices). Absorbance was read, background glucose-6-phosphate levels were subtracted, after which activation was calculated as a percentage of control activity. Control activity was determined using GK in the presence of vehicle (DMSO), with background glucose-6-phosphate subtracted. Background glucose-6-phosphate was determined by pre-quenching GK with EDTA prior to reaction initiation with ATP. […]

In another data set the target is CYP450 2C9 (Homo sapiens, UniProt P11712). Description: CYP450 2C9 inhibition. It counts as in vitro ADME.
The target in another data set is CYP450 2D6 (Homo sapiens, UniProt P10635). Description: CYP450 2D6 inhibition. It counts as in vitro ADME.
Data set [4] can be described thus: Metabolic stability in human liver microsomes. Type of data set: in vitro ADME. For orientation: Microsomes from liver hold many membrane-bound enzymes, among them those of drug oxidation.
A further data set has as its target CYP450 2C19 (Homo sapiens, UniProt P33261). Description: CYP450 2C19 inhibition. It counts as in vitro ADME.

Values after ≈ are worked out from the molar mass of the structure shown. Where two headings read alike, the source gives them in different places. Some results are limits rather than exact numbers.

CYP450 2D6, sequence (P10635 whole entry): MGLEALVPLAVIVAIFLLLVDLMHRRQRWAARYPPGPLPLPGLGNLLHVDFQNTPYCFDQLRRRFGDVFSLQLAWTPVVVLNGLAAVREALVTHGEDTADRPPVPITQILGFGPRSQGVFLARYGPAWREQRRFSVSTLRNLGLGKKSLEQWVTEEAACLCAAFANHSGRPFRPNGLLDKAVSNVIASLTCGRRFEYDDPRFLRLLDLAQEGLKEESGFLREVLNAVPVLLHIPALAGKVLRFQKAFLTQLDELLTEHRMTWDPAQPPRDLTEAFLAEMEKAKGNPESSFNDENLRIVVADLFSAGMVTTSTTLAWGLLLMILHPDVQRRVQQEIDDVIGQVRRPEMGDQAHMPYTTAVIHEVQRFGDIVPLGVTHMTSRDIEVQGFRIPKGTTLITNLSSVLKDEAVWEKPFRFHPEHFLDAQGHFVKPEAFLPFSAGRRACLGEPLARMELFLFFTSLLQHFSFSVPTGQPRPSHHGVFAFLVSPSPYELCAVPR
CYP450 3A4, sequence (P08684 whole entry): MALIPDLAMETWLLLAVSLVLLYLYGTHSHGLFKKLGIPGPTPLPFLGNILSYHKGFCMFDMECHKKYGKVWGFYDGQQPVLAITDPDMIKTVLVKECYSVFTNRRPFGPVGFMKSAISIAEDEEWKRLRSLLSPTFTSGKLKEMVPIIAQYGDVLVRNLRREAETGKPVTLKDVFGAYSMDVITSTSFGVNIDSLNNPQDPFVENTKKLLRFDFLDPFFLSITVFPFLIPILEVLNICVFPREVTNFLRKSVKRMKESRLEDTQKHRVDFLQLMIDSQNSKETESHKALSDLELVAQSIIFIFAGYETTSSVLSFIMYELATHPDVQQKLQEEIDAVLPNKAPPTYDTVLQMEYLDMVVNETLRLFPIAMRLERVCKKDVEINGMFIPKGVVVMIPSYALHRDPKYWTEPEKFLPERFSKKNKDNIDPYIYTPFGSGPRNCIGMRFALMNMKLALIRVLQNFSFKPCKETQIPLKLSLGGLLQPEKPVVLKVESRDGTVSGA
CYP450 2C19, sequence (P33261 whole entry): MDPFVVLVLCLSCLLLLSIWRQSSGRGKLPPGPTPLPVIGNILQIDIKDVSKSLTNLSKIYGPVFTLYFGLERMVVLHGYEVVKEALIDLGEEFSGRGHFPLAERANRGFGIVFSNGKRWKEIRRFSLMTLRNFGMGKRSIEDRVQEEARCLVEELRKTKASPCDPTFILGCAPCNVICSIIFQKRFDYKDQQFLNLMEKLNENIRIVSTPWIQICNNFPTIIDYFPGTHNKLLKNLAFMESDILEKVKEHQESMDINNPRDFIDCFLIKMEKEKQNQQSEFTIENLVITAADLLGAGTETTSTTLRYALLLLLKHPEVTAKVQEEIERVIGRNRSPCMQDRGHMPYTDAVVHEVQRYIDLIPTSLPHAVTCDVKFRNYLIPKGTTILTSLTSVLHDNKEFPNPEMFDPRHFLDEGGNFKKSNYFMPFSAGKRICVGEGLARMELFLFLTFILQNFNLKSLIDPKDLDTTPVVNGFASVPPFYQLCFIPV
CYP450 2C9, sequence (P11712 whole entry): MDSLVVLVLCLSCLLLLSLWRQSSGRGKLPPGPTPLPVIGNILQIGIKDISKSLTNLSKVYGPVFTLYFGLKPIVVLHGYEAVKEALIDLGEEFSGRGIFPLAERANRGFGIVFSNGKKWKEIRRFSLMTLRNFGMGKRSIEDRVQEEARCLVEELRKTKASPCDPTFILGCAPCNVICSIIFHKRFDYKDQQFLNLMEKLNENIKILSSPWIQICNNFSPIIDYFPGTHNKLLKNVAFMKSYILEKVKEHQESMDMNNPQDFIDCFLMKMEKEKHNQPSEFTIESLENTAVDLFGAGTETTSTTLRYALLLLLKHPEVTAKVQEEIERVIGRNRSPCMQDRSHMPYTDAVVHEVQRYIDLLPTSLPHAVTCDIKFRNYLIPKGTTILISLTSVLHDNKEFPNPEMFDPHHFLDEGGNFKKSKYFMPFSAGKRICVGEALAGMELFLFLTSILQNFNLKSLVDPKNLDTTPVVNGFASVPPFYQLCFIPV

As usually defined, the IC50 is the concentration that gives 50% inhibition. A low value points to inhibition by little substance. For orientation: AUC(0-t) means the area under the concentration-time curve up to a stated or last time point. The term solubility denotes the dissolved amount per volume that the medium holds. By EC50 is commonly meant the concentration needed to bring the measured effect to its halfway point. Consider `CC[C@@H](COC)Oc1cc(Oc2ccc(S(C)(=O)=O)nc2)cc(C(=O)Nc2nc(CP3(=O)OCCCO3)cs2)c1` [Example 1, 3-(((1S)-1-(methoxymethyl)propyl)oxy)-5-((6-(methylsulfonyl)-3-pyridinyl)oxy)-N-(4-((2-oxido-1,3,2-dioxaphosphinan-2-yl)methyl)-1,3-thiazol-2-yl)benzamide], for which the IC50 against CYP450 1A2 was > 40 µM; against CYP450 3A4 it was > 40 µM; on CYP450 2C8, 24.6 µM; against Human Glucokinase it was 0.095 µM; at CYP450 2C9 it was 26.8 µM; against CYP450 2D6, > 40 µM. The IC50 at CYP450 2C19 was > 40 µM. For the same molecule, the “Metabolic Stability Mouse (0.5 μM)” value in data set [1] was 92%. Further, the “reduction in glucose AUC (after an oral glucose tolerance test in diet-induced obese mice)” value in [2] (10 μmol/kg dose) is 47%. In addition, the “Glucose lowering (AUC) (120 min)” value in [2] (OGTT, DIO mice, oral dose 10 μmol/kg, AUC 0-120 min) is −47%. In addition, the Kp at 1 h in data set [3] (liver/plasma, po, 10 mg/kg, read-out: Liver/Plasma ratio) was ~39. This molecule also registered an AUC(0-t) in [3] (plasma, 0-4 hr) of 1.53 µM·h. Moreover, the concentration at 0.5 h in data set [3] (plasma, 0.5 hr post dose) came to 604 ± 234 nM. Further, the concentration at 1 h was 631 ± 286 nM in [3] (plasma, 1 hr post dose, read-out: Plasma (1 hr)) and 21600 ± 1360 nM in data set [3] (liver concentration 1 hr post dose, read-out: Liver (1 hr)). Further, in [3] (plasma, 2 hr post dose), the concentration at 2 h was 398 ± 193 nM. The molecule also displayed a concentration at 4 h in data set [3] (plasma, 4 hr post dose) of 193 ± 133 nM. The same molecule gave a solubility in the data set “Aqueous solubility” of 74 µg/mL (≈ 121 µM). In addition, the EC50 on Mouse Glucokinase worked out at 0.037 µM; at Human Glucokinase, 0.036 µM. Moreover, the Emax on Mouse Glucokinase (read-out: Mouse Glucokinase Ymax (maximal activation)) and on Human Glucokinase (read-out: Human Glucokinase Ymax (maximal activation)) was 194% each time. Besides, the “Metabolic Stability Human Liver Microsomes (0.5 μM)” value in data set [4] is 80%.

(Values after patent publication US10604541B2, “Glucokinase activators and methods of using same” (BRISTOL-MYERS SQUIBB COMPANY, priority 2016, dated 2020).)
